Laboratory results reported in patent US5043332A, “Novel 11β-substituted -19-nor-steriods” (priority 1981, dated 1991).

Key:
[1] = target: T1, Mineralcorticoidal receptor of kidneys of the rat (Rattus norvegicus, UniProt P22199); assay: Mineralcorticoidal receptor binding (displacement of tritiated aldosterone); conditions: second table; incubation 24 H at 0° C.
T1 construct: from tissue; host or cells: rat kidney, 105,000 g supernatant (adrenalectomized male Sprague-Dawley rats)
T1 sequence (P22199 1-981): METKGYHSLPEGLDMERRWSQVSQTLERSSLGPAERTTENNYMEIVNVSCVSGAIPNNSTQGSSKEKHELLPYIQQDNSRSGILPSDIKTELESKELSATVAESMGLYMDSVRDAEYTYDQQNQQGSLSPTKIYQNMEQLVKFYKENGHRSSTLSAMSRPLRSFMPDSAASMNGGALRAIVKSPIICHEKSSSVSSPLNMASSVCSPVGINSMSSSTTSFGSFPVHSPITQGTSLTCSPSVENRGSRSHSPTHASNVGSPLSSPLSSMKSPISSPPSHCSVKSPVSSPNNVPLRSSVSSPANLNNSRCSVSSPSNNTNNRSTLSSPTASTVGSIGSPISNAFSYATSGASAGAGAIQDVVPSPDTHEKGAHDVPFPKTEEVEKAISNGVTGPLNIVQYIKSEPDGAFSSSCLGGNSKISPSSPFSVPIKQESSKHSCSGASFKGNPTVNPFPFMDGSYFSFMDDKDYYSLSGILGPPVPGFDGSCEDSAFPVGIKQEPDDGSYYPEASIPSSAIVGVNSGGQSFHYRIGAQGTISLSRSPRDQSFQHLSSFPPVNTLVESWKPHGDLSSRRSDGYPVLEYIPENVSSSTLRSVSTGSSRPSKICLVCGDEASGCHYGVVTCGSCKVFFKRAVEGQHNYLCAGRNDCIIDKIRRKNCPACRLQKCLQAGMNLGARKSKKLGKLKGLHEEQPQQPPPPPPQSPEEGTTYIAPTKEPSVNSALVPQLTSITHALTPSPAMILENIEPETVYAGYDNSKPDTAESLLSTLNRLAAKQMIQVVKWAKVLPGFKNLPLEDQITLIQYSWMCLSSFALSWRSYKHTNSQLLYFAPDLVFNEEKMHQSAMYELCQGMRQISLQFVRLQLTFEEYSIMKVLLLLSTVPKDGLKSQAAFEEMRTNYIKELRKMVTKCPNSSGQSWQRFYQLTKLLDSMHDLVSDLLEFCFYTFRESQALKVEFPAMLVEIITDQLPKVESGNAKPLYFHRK
Description: A. Mineralcorticoidal receptor of kidneys of the rat
Male Sprague-Dawley EOPS rats weighing 140 to 160 g surrenalectomized 4 to 8 days previously were killed and their kidneys were perfused in situ with 50 ml of a buffer (10 mM of Tris 0.25M of Saccharose and sufficient hydrochloric acid for a pH of 7.4). The kidneys were then removed, decapsulated and homogenized at 0° C. with a polytetrafluoroethylene-glass Potter (1 g of tissue per 3 ml of buffer). The homogenate was centrifuged for 10 minutes at 800 g at 9° C.
After elimination of the fixation of tritiated aldosterone with glucocorticoid receptor, 21-methyl-Δ^1,4,6 -pregnatriene-20-yne-11β,17β-diol-3-one fixed only with the glucocorticoid receptor was added to the supernatant at a final concentration of 10^-6 M. The suprenatant was ultracentrifuged at 105,000 g for 60 minutes and 0° C. and aliquoits of the resulting surnageant were incubated at 0° C. with a constant concentration (T) of tritiated aldosterone in the presence of increasing concentrations (0-2500×10^-9 M) of cold aldosterone or the cold test product. After a time (t) of incubation, the concentration of tied tritiated aldosterone (B) was measured by the technique of adsoprtion on carbon dextran.
The calculation of the relative affinity of […] (ARL) was identical for all of the above receptor tests. One traced the following two curves: the percentage of tied tritiated hormone B/T as a function of the logarithm of the cold hormone concentration and B/T as a function of the logarithm of the concentration of the cold test product. One determined the line of the equation. [formula]
The intersection of the I50 line and the curves permits one to determine the concentrations of the cold hormone of the reference (CH) and the cold test compound (CX) which inhibit by 50% the tieing of tritiated hormone with the receptor. The relative affinity of tieing (ARL) of the test product was determined by the equation: [formula]

[2] = target: T2, Androgen receptor of prostate of rats (Rattus norvegicus, UniProt P15207); assay: Androgen receptor binding (displacement of tritiated product P); conditions: for relative affinity of tieing (ARL), Androgen: second table, incubation 24 H at 0° C.; for affinity for androgen receptors (in words): conclusion
T2 construct: The prostates were removed, weighed and homogenized at 0° C; from tissue; host or cells: rat prostate, 105,000 g supernatant (castrated male Sprague-Dawley rats)
T2 sequence (P15207 1-902): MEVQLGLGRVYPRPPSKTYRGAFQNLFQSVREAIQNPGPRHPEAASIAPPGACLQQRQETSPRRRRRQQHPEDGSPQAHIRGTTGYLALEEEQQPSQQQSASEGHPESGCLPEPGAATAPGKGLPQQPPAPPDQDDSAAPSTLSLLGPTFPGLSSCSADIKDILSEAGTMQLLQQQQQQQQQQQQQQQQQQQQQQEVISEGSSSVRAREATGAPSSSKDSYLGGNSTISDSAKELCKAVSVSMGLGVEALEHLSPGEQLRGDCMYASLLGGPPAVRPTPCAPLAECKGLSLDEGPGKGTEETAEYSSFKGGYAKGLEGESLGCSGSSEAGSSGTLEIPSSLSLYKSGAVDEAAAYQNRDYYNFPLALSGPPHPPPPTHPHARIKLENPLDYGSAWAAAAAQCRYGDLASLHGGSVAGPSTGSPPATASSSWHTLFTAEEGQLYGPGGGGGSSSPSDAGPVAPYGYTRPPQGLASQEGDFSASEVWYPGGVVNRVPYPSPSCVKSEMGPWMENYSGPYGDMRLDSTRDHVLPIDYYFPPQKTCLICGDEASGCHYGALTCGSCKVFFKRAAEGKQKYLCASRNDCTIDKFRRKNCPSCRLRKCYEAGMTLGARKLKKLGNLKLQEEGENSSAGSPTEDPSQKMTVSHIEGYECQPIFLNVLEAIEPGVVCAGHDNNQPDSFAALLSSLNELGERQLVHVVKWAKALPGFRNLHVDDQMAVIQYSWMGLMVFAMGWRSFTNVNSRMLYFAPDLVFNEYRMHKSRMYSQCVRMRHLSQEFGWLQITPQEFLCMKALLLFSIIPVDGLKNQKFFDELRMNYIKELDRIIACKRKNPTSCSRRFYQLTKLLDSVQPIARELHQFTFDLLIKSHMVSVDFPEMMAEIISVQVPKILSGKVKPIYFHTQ
Outline: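 Male Sprague-Dawley EPOS rats of 160 to 200 g were castrated and killed 24 hours later. Prostates were homogenized at 0° C. in Tris 10 mM, 0.25M saccharose, HCl buffer at pH 7.4 (1 g tissue per 5 ml) and ultracentrifuged at 105,000 g. Cytosol was incubated with tritiated product P plus increasing cold competitor (0-1,000×10^-9 M). Bound tritium was measured by carbon-dextran adsorption. ARL was derived from the 50% inhibitory concentrations of reference and test compound.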

SMILES	relative affinity of tieing (ARL), Mineralocorticoid [1]	relative affinity of tieing (ARL), Androgen [2]	affinity for androgen receptors (in words) [2]
C[C@]12C[C@H](c3ccc([N+](C)(C)[O-])cc3)[C@]34O[C@]35CCC(=O)C=C5CC[C@H]4[C@@H]1CC[C@@]2(O)C#CCl [Example 27, N-oxide of 11β-[4-(N,N-dimethylamino)-phenyl]-9α,10α-epoxy-21-chloro-19-nor-17α-Δ^4-pregnene-20-yne-17β-ol-3-one]	0	2,8	–
C#C[C@]1(O)CC[C@H]2[C@@H]3CCC4=CC(=O)CCC4=C3[C@@H](c3ccc(N(C)C)cc3)C[C@@]21C [Example 32, 11β-[4-(N,N-dimethylamino)-phenyl]-17α-ethynyl-Δ^4,9-estradiene-17β-ol-3-one]	0	68	slightly moderate affinity
C=CC[C@]1(O)CC[C@H]2[C@@H]3CCC4=CC(=O)CCC4=C3[C@@H](c3ccc(N(C)C)cc3)C[C@@]21C [Example 37, 11β-[4-(N,N-dimethylamino)-phenyl]-17α-(prop-2-enyl)-Δ^4,9-estradien-17β-ol-3-one]	0,3	8	slightly moderate affinity
CN(C)c1ccc([C@H]2C[C@@]3(C)[C@@H](CC[C@@]3(O)C#C[Si](C)(C)C)[C@@H]3CCC4=CC(=O)CCC4=C32)cc1 [Example 44, 11β-[4-(N,N-dimethylamino)-phenyl]-21-trimethylsilyl-19-nor-17α-Δ^4,9-pregnadiene-20-yne-17β-ol-3-one]	0	4,6	–
